How the values were obtained:
[1] = Cytotoxicity, XTT viability assay, Caco-2; conditions: human
Procedure: (§1) The cytotoxicity assay was performed to evaluate the effect of the selected compounds on human cells. Colon cells were used because they are cell lines like those present in the microenvironment where G. lamblia colonizes, which is the small intestine of the host. The assay was performed using the human cell lines Caco-2 (ATCC HTB-37) and HT-29 (ATCC […]). Cell viability was determined using the Cell Proliferation Kit II (XTT, St. Louis, MO, EE. UU.). A cell suspension of 2 × 10^3 cells/mL was prepared in Dulbecco’s modified Eagle’s medium (DMEM) supplemented with 10% inactivated fetal bovine serum and an antibiotic (1% penicillin/streptomycin, 5000 U/mL, in a volume of 100 µL). The suspension was added to a 96-well plate. The plates were incubated for 24 h at 37 °C in a 5% CO2 atmosphere. […] The cells were incubated for 48 h at 37 °C in a 5% CO2 atmosphere. Cell viability was determined using the following steps. The medium in each well was replaced with 100 µL of fresh medium, and 50 µL of XTT labeling mix was added per well. The reaction was incubated for four hours at 37 °C and 5% CO2. After incubation, the absorbance of the samples on the plate was measured at 450 nm. Each compound was assayed in triplicate in three independent experiments. CC50 values (μM) were determined using the nonlinear regression function of GraphPad Prism version 8 for Windows.

Caco-2 cells = assay: Cytotoxicity, XTT viability assay, Caco-2; conditions: read-out: CC50 Caco-2; 48 h, XTT
Procedure: as §1

[2] = test system: G6PD::6PGL enzyme of G. lamblia; conditions: cited from earlier work
[3] = test system: G. lamblia strain ATCC 30957; assay: Viability of Giardia lamblia trophozoite culture (trypan blue count); format: cell-based
Procedure: Viability analysis was performed on G. lamblia strain ATCC 30957 grown in TYI-S-33 medium supplemented with 10% fetal bovine serum (FBS) and an antibiotic. Pre-culture was performed in 16 × 150 mm borosilicate tubes with a medium inoculated with 2 × 10^5 trophozoites and incubated at 37 °C for 48 h. For the recovery of the trophozoites, the vial was incubated in ice for 8 min and centrifuged for 6 min at 2000 rpm. The concentrated trophozoites were suspended in 1 mL of phosphate-buffered saline (PBS), and the number of trophozoites was counted by placing a 1:1 volume ratio of cell culture and trypan blue dye (4 g/L); then, a homogeneous drop of the mixture was taken and placed in the Neubauer chamber, and the total cells were counted.
The curves were plotted for concentrations of 0–50 µM of each compound. The assay was performed by placing 1.5 × 10^5 cells in 1.5 mL microcentrifuge tubes with a supplemented medium and different concentrations of each compound (0–50 µM). The negative control was performed under the same conditions without a compound, and the drugs NTZ and MTZ were used as positive controls. The samples were incubated for 48 h at 37 °C. At the end of the incubation, the cell viability count was performed using the trypan blue technique. The viability calculation was performed following the formula nv/(nv + nm), where nv represents the live cells and nm represents the dead cells; the viability value obtained was expressed as a percentage. The IC50 value of each compound was determined using the IC50 Calculator software (https://www.aatbio.com/tools/ic50-calculator).

[4] = test system: G. lamblia strain resistant to nitazoxanide; assay: Giardicidal activity in nitazoxanide-resistant strain (trypan blue count); format: cell-based; conditions: Giardia duodenalis, 48 h, read-out: IC50 G. lamblia (NTZ Resistant)
Procedure: A pre-culture at confluence was used as a starting point, and a concentration–response curve was plotted using an initial compound concentration of 25 μM in a final volume of 1.5 mL of TYI-S-33 medium, followed by serial dilutions of the compound. Each treatment was inoculated with 1.5 × 10^5 trophozoites and incubated for 48 h at 37 °C. At the end of the incubation, the number of trophozoites was determined using the trypan blue assay and by counting in a Neubauer chamber. The viability percentage at each compound concentration was calculated using the negative control as a reference.

[5] = Cytotoxicity, XTT viability assay, HT-29; conditions: human, HT-29 cells, CC50 HT-29, 48 h, XTT
Procedure: as §1

HT-29 cells = assay: Cytotoxicity, XTT viability assay, HT-29
Procedure: as §1

[6] = test system: Giardia lamblia trophozoites (strain ATCC 30957) gene expression; assay: Gene expression in trophozoites by RT-qPCR; format: cell-based; conditions: IC50 of each compound, 48 h
Procedure: To determine the alterations in the parasite’s metabolism and cellular processes induced by the compounds, the expression levels of various genes encoding metabolic, structural, and oxidative stress response proteins were evaluated. G. lamblia strain ATCC 30957 was grown by following previously established culture parameters.
The culture tube was incubated on ice for 15 min and then centrifuged at 2000 rpm for 6 min to concentrate the cell pellet. Cell counting was performed using the trypan blue method. A 500 µL volume of Trizol ® was added, and it was gently homogenized; then, 60 µL of chloroform was added, and it was homogenized for 10 s with a vortex and incubated on ice for 3 min. Afterward, it was centrifuged at 12,000 rpm for 10 min, the aqueous phase was transferred to a new tube, 200 µL of isopropanol was added, and it was incubated for 3 h on ice. The sample was then centrifuged for 10 min at 12,000 rpm, and the supernatant was discarded. A 600 µL volume of ethanol (70%) was added, homogenized, and centrifuged. In the end, the supernatant was removed, and the sample was centrifuged again to dry the excess alcohol. The pellet was dried. Finally, it was resuspended in 25 µL of sterile MilliQ water. The concentration and purity of the extracted RNA were determined using the NanoDrop® Spectrophotometer ND-1000 (NanoDrop Technologies, Wilmington, DE, USA). […] RNA purity and integrity were confirmed using 0.8% (w/v) agarose gels under denaturing conditions.
The synthesis of cDNA was carried out with […] of purified RNA, and 1 U of […] was added (Thermo Thermo Fisher Scientific, Waltham, MA, USA). First-strand cDNA synthesis was carried out using 1 μg of DNase-treated RNA, combined with a 10 mM dNTP mix, oligo(dT)18 primer, and RevertAid reverse transcriptase (Thermo Scientific) in a final reaction volume of 20 μL. The reaction mixture was incubated at 42 °C for 60 min, followed by heat inactivation at 70 °C for 10 min. The synthesized cDNA was stored at −20 °C until further use. The level of purity and concentration of the cDNA were determined using the NanoDrop® Spectrophotometer ND-1000 (NanoDrop Technologies, Wilmington, DE, USA).
Specific oligonucleotides were designed to determine the expression levels of the gene’s phosphofructokinase, pyruvate kinase, glucose-6-phosphate dehydrogenase::6-phosphogluconolactonase, 6-phosphogluconate dehydrogenase, and transketolase. The design was based on gene sequences available in the National Center for Biotechnology Information (NCBI) database, adhering to the following criteria: an oligonucleotide length of 18–20 bp, a melting temperature (Tm) of 61 °C, a GC content of approximately 40%, and an amplicon size between 80 and 200 bp (Table 4). The oligonucleotides were synthesized by the Sequencing and Synthesis Unit of the Institute of Biotechnology, UNAM.
Additionally, previously reported primers that were used for the gene expression analysis of G. lamblia were also obtained (Table 4). These primers target genes encoding surface structural protein, giardin, actin, pyruvate:ferredoxin oxidoreductase, pyruvate phosphate dikinase, NADH oxidase, triose phosphate isomerase, glyceraldehyde-3-phosphate dehydrogenase, and Aldolase.
Amplification was performed using a StepOne™ Real-Time PCR System and the Fast SYBR® Green Master Mix kit (Applied Biosystems, Foster City, CA, USA) under the following conditions: an initial denaturation at 95 °C for 30 s, followed by 40 cycles of 95 °C for 3 s and 60 °C for 30 s. The melt curve analysis was conducted post-amplification by gradually increasing the temperature from 60 °C to 95 °C. […] Normalization was performed using the geometric mean of cycle threshold (Ct) values, and the relative expression levels of the target genes were calculated using the 2^−ΔΔCt method. Each reaction was performed in five replicates for all analyzed genes and strains. Results are presented as mean values ± standard deviation (SD).

Caco-2 and HT-29 cells = assay: Cytotoxicity, XTT viability assay, stated for both cell lines; format: cell-based, human; conditions: 125 µM, 48 h
Procedure: The suspension was added to a 96-well plate. […] Cell viability was determined using the following steps.

[7] = ratio of IC50 values, ATCC strain

Structure (SMILES): COc1cccc(C(=O)Nc2ncc([N+](=O)[O-])s2)c1 [FLP-6, 3-Methoxy-N-(5-nitro-1,3-thiazol-2-yl)benzamide]
- selectivity ratio at 48 h ([1]; Caco-2): 636
- CC50 at 48 h ([1]; Caco-2, CC50 Caco-2, 48 h, XTT): 178 µM
- CC50 (Caco-2 cells): 178 µM
- Inhibition of the G6PD::6PGL enzyme (in words) [2]: not inhibitors of the enzyme
- Decrease of parasite viability ([3]; 25 µM): 100%
- Inhibition of growth of G. lamblia parasite culture ([3]; concentration not given): more than 98%
- Relative potency compared with MTZ [3, 7]: 12 times
- Relative potency compared with NTZ [3, 7]: 15 times
- IC50 [4]: 540 nM
- CC50 at 48 h [5]: 115 µM
- Selectivity index (CC50/IC50) HT-29 (HT-29 cells; CC50 HT-29 / IC50 trophozoite ATCC strain 30957): 411
- CC50 (HT-29 cells; read-out: CC50 HT-29, 48 h, XTT): 115 µM
- ACT (actin) gene expression, increase vs control [6]: 2.5 times
- G6PD::6PGL gene expression vs control [6]: 35 fold change
- GIA (giardin) gene expression, increase vs control [6]: 2.6 times
- PFK gene expression vs control [6]: 2.3 fold change
- TKT gene expression, decrease vs control [6]: 1.2 times
- VSP gene expression, increase vs control [6]: 5.9 times
- Decrease of cell viability (Caco-2 and HT-29 cells): up to 30%

Reference: paper PMC12111156, “Nitazoxanide Analogs: Synthesis, In Vitro Giardicidal Activity, and Effects on Giardia lamblia Metabolic Gene Expression” (International Journal of Molecular Sciences, 2025)
